Where a SMILES comes first, the peptide text is derived from it.
How the values were obtained:
[1] = system: RNA polymerase (RNAP) in E. coli MC1061; test: High-throughput growth-based screen with NGS (enrichment value) for RNA polymerase inhibition; type: cell-based; set-up: key to Experimental observation (enrichment observed in the screen): Dropout: Many variants inhibit RNAP so strongly that they cannot be detected by NGS after IPTG induction (referred to as dropout variants); settings: Table S4; variants whose MICs were tested
Outline: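 E. coli MC1061 carrying ubonodin single/double variant plasmid libraries was grown and induced with 10 µM or 100 µM IPTG; surviving colonies were sequenced by NGS. Enrichment value = log2 of variant frequency post-IPTG over frequency in the cloning transformation library; depletion indicates RNAP inhibition.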

B. cenocepacia AU0756 = system: B. cenocepacia AU0756
Outline: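 Ubonodin variants were tested by broth microdilution following CLSI guidelines against clinical Burkholderia cenocepacia isolates AU0756 and AU24362.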

E. coli MC1061 = test: Spot dilution assay of E. coli producing the ubonodin variant from pUboABC; type: cell-based; settings: biological duplicates
Outline: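 E. coli MC1061 carrying the plasmids was grown at 37 °C in LB with 100 μg/mL ampicillin to OD600 0.3, then induced with 100 μM IPTG. Samples taken before induction and at later timepoints were PBS-washed, spotted as ten-fold dilutions on ampicillin/0.2% glucose LB plates, and imaged after 16 h at 37 °C.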

CC[C@H](C)[C@@H]1NC(=O)[C@H](CO)NC(=O)CNC(=O)[C@H](CC(=O)O)NC(=O)CNC(=O)CNC(=O)CC[C@@H](C(=O)N[C@@H](Cc2ccc(O)cc2)C(=O)N[C@@H](Cc2ccccc2)C(=O)N[C@@H](CCSC)C(=O)N[C@@H](CCCNC(=N)N)C(=O)N2CCC[C@H]2C(=O)N[C@@H](CCSC)C(=O)N[C@@H](Cc2c[nH]cn2)C(=O)N[C@H](C(=O)N[C@@H](Cc2c[nH]cn2)C(=O)N[C@@H](CC(=O)O)C(=O)N[C@@H](Cc2c[nH]c3ccccc23)C(=O)N[C@@H](CCC(N)=O)C(=O)N[C@H](C(=O)N[C@@H](CCSC)C(=O)N[C@@H](CC(=O)O)C(=O)N[C@@H](CO)C(=O)NCC(=O)N[C@@H](Cc2ccc(O)cc2)C(=O)N[C@@H](Cc2ccc(O)cc2)C(=O)NCC(=O)O)[C@@H](C)CC)[C@@H](C)CC)NC(=O)CNC1=O [A7G N11M] (HELM PEPTIDE1{G.G.D.G.S.I.G.E.Y.F.M.R.P.M.H.I.H.D.W.Q.I.M.D.S.G.Y.Y.G}$PEPTIDE1,PEPTIDE1,1:R1-8:R3$$$V2.0)
Experimental observation (enrichment observed in the screen) [1]: Dropout
B. cenocepacia AU0756 MIC (B. cenocepacia AU0756): >8 µM
Time after induction at which the toxic effect was observed (E. coli MC1061; pUboABC backbone): 6 h
Inhibits Growth (E. coli MC1061; variant in pUboABC backbone in E. coli MC1061, induction with 100 μM IPTG, ten-fold serial dilutions): Yes

— paper PMC10037499, “High-Throughput Screen Reveals the Structure–Activity Relationship of the Antimicrobial Lasso Peptide Ubonodin” (ACS Central Science, 2023)
